The values below are quoted from earlier work in patent publication US20170151174A1, “MAGNETOENZYMATIC CARRIER SYSTEM FOR IMAGING AND TARGETED DELIVERY AND RELEASE OF ACTIVE AGENTS” (priority 2014, published 2017).

The subject of the series is colon HT-29 cancer cells. Conditions: SMase activity of 0.5 U/ml.

For sphingomyelinase [SMase], the cell death is 80%.
